Laboratory results: paper PMC7303324, “Conventional Pig as Animal Model for Human Renal Drug Excretion Processes: Unravelling the Porcine Renal Function by Use of a Cocktail of Exogenous Markers” (Frontiers in Pharmacology, 2020)
“And” between values parts separate entries of the source, which are not always exact repeats. Identical values can stand only once. Like-named read-outs stand apart in the source and are kept apart here.

Legend:
plasma proteins [1] = test system: plasma proteins; design: method as in Humphrey et al., 1985; conditions: other species like humans, dogs, rats, and mice; ref Humphrey et al., 1985; cited from earlier work
[2] = Pharmacokinetics and renal clearance of a renal marker cocktail after IV bolus in 7-week-old male pigs; conditions: for CL renal: plasma and urine
From the text: (§1) Eight healthy, stress resistant, 6-week-old male piglets (Landrace × Large White × Maximus, Seghers Hybrid®, Wuustwezel, Belgium) were recruited for this study. Upon arrival piglets were group-housed in standard pig stables (2.30 × 2.40 m) with ad libitum access to water and feed (Piggistart Opti®, Aveve, Leuven, Belgium). During the whole experimental period, stables were enriched with rubber toys, balls of different size, and cotton towels. After a 5-day acclimatization period, a double-lumen jugular catheter was inserted following the procedure described by Gasthuys et al., permitting accurate intravenous (IV) administration of the renal markers and blood collection ([Gasthuys et al., 2017b]). During anesthesia, a human stoma ring (Esteem synergy® Uro, 48 mm, ConvaTec, Belgium) was attached around the prepuce of the piglets to allow urine collection ([Gasthuys et al., 2017b]). After surgery, the pigs were housed individually to avoid displacements of the catheters and stoma rings. Catheters were flushed at least twice daily with heparinized 0.9% NaCl (50 IU/ml), and the bandages were changed daily.
(§2) After a one day recovery period, urine pouches were attached to the stoma ring just before administration of the drugs. […] Blood was sampled via the other lumen of the catheter at 0, 5, 15, 30, 45, and 60 min, and 2, 4, 6, 8, 12, 24, 36, 48, and 72 h post administration and collected into K3EDTA collection tubes (Vacutest®, Piove die Sacco, Kima, Italy). The samples were kept on ice and centrifuged (2,095 × g, 10 min, 4°C) within 2 h. Multiple timed urine collections were performed over a 48 h time period. The total volume of urine voided in each time period was registered. Aliquots of plasma were stored at ≤−80°C until analysis. Urine samples were initially stored at −20°C for 6 weeks, but were subsequently stored at −80°C for further storage.
(§3) Total plasma iohexol and PAH concentrations were quantified simultaneously using a validated ultrahigh performance liquid chromatography tandem mass spectrometry (UHPLC-MS/MS) method as previously described by [Dhondt et al. (2019)] […] The same UHPLC method was used for analysis of PAH in urine samples with slight modifications. The LLOQ was 0.25 µg/ml.
(§4) Pharmacokinetic modeling of the plasma concentration–time data was performed using Phoenix® 8.1 (Certara, Cary, NC, USA). Values below the LOQ were excluded from the dataset. […] A multiplicative error model was used. […] The estimated primary parameters were volume of distribution (Vd) and total body clearance (CLTOT). Also the following secondary parameters were calculated: elimination half-life (T1/2el), elimination rate constant (Ke), volume of distribution at steady state (Vss), and the area under the curve from time 0 h to infinity (AUC0→inf).
(§5) The cumulative amount of unchanged compound recovered in the urine (Ae) was calculated taking the sum of the amount excreted at every collection point. This amount was calculated by multiplying the observed concentration by the volume collected at every collection point.
(§6) where AUC0→inf is the area under the plasma concentration–time curve extrapolated to infinity. […] The AUC0→48h was calculated by noncompartmental analysis (NCA) using the linear up-log down trapezoidal method. The nonrenal clearance (CLNR) was obtained by subtracting the CLR from CLTOT. The CLTOT of iohexol is a measure for the GFR. The CLR of PAH is used to estimate the ERPF. The filtration fraction (FF) was calculated by

[3] = healthy human adults, ref Gross et al. (2001), cited from earlier work; for Net tubular reabsorption (CLREA): fluconazole given orally; for Net tubular secretion (CLSECR): pindolol given orally
[4] = pig, in vivo, iv
From the text: as §1, §2, §3, §4, §5, §6

[5] = design: method as in Gasthuys et al., 2017a; conditions: pigs of 7 weeks of age; ref Gasthuys et al., 2017a; cited from earlier work
porcine kidney = test system: porcine kidney; design: method as in Gyrd-Hansen and Rasmussen (1970); conditions: in vivo, pigs; ref Gyrd-Hansen and Rasmussen (1970); cited from earlier work
[6] = humans, cited from earlier work
plasma proteins [7] = assay: In vitro plasma protein binding by ultrafiltration in spiked pig plasma; type: in vitro ADME; conditions: 39°C, fluconazole corrected for NSB
Protocol: Three aliquots of each concentration level were analyzed the same way as the pharmacokinetic (PK) study samples as described above to determine the total plasma concentration. Three other aliquots of each concentration were incubated for 1 h in a hot water bath of 39°C to replicate the pig's core body temperature and subsequently transferred onto an ultrafiltration device. […] Thereafter, the obtained filtrate was analyzed in the same way as the PK study samples to determine the unbound plasma concentration. The following equation was used to determine the unbound fraction in plasma: […]
The duration of centrifugation was reduced to 2.5 and 1.0 min for Microcon® and Amicon® filters, respectively.
Cunbound,corrected=Cunbound,measured/1-NSB

GFR = conditions: hypertensive patients, ref Wainer et al., 1980, cited from earlier work
[8] = humans; ref Schwarz, 1982; cited from earlier work
[9] = design: method as in Friedli et al., 1986; conditions: pigs with induced myocardial infarction, IV 0.05 mg/kg; ref Friedli et al., 1986; cited from earlier work
plasma proteins [10] = test system: plasma proteins; design: method as in Hsyu and Giacomini, 1985; conditions: humans; ref Hsyu and Giacomini, 1985; cited from earlier work
ERPF and GFR = test system: ERPF and GFR; design: method as in Epstein et al., 1985; conditions: dogs, IV administration; ref Epstein et al., 1985; cited from earlier work
[11] = male, Landrace × Large White × Maximus (Seghers Hybrid), pig, plasma, iv
[12] = male, Landrace × Large White × Maximus (Seghers Hybrid), pig, plasma, iv, 0.5 mg/kg
[13] = corrected for estimated mean BSA
[14] = 7-week-old male pigs, indexed to BSA, mean ± SD

For `OC(Cn1cncn1)(Cn1cncn1)c1ccc(F)cc1F` [Fluconazole, fluconazole], the Plasma protein binding (plasma proteins [1]) is given as ~ 12%, the CL renal ([2]; male, Landrace × Large White × Maximus (Seghers Hybrid), pig, iv, 0.5 mg/kg, CLR, IV bolus, 7-week-old male pigs, n = 6, Ae/AUC0→inf (fluconazole: Ae 48 h/AUC0→48h), mean ± SD) is given as 0.32 ± 0.05 mL/min/kg and the CL renal ([2]; male, Landrace × Large White × Maximus (Seghers Hybrid), pig, iv, 0.5 mg/kg, Renal clearance calculated over a time period of 24 h, pigs, IV 0.5 mg/kg, data up to 24 h) is given as 0.33 ± 0.06 mL/min/kg. It also gave a CL renal ([2]; male, Landrace × Large White × Maximus (Seghers Hybrid), pig, iv, 0.5 mg/kg, Renal clearance estimated over 48 h, pigs, IV 0.5 mg/kg, data up to 48 h) of 0.32 ± 0.05 mL/min/kg, a clearance [2, 11] of 0.45 ± 0.049 mL/min/kg and a Vd [2, 12] of 0.98 ± 0.04 L/kg. It also gave a clearance [2, 12] of 0.45 ± 0.05 mL/min/kg, a half-life [2, 12] of 25.7 ± 2.75 h and a k el [2, 12] of 8.33e-06 s⁻¹. For the same compound, the “Net tubular reabsorption (CLREA)” value [3, 13] was 49.21 ± 15.34 ml/min/m², the “Net tubular reabsorption (CLREA)” value ([3]; corrected for mean BW 72 kg) was 1.29 ± 0.40 mL/min/kg and the CLNR ([4]; male, Landrace × Large White × Maximus (Seghers Hybrid)) was 0.13 ± 0.039 mL/min/kg.
For `CC(=O)N(CC(O)CO)c1c(I)c(C(=O)NCC(O)CO)c(I)c(C(=O)NCC(O)CO)c1I` (centres unmarked) [Iohexol, iohexol], the Iohexol clearance [5] is given as 100.92 ± 20.84 ml/min/m², the “GFR = CLTOT IOH” value [2, 14] is given as 97.87 ± 16.05 ml/min/m² and the clearance ([2]; male, Landrace × Large White × Maximus (Seghers Hybrid), pig, plasma, intravenous, 64.7 mg/kg BW) is given as 4.12 ± 0.54 mL/min/kg. It also gave a clearance [2, 11] of 4.12 ± 0.54 mL/min/kg.
In the case of `Nc1ccc(C(=O)NCC(=O)O)cc1` [PAH, para-aminohippuric acid], the “Amount of PAH acetylated by the porcine kidney, mean” value (porcine kidney) is listed as −0.1%, the “Nonrenal clearance as share of total drug elimination” value ([6]; ref Prescott et al., 1993) is listed as 15 to 30% and the “Plasma concentration at which saturation of the transport system is observed” value ([6]; ref Tett et al., 2003) is listed as 300 to 600 µg/mL. For the same compound, the “ERPF = CLR PAH” value [2, 14] was 226.77 ml/min/m² and 226.77 ± 62.45 ml/min/m², the “ERPF = CLR PAH” value ([2]; 7-week-old male pigs, indexed to BW, mean ± SD) was 9.51 ± 2.44 mL/min/kg and the Urinary recovery ([2]; IV bolus, 7-week-old male pigs, fraction of dose recovered unchanged in urine, n = 6) was 30.09 ± 5.06%. For the same compound, the CLNR ([2]; IV bolus, 7-week-old male pigs, n = 6, CLTOT minus CLR, mean ± SD) was 22.02 mL/min/kg and 22.02 ± 3.76 mL/min/kg, the “Ae, cumulative amount of unchanged compound recovered in the urine” value ([2]; IV bolus, 7-week-old male pigs, urine collected over 48 h, n = 6, mean ± SD) was 29,512 ± 5751 µg and the CLTOT ([2]; Table 1, IV bolus, 7-week-old male pigs, iohexol n = 8, others n = 6, mean ± SD) was 31.53 ± 5.38 mL/min/kg. The “Contribution of nonrenal elimination to total clearance” value ([2]; pigs) was “approximately 70%”, the “PAH plasma concentrations reached” value ([2]; pigs, IV bolus 10 mg/kg BW) was “below 30 µg/ml” and the “ERPF = CLR PAH” value [3, 13] was 247.09 ml/min/m² and 247.09 ± 77.25 ml/min/m². For the same compound, the “ERPF = CLR PAH” value ([3]; corrected for mean BW 72 kg) was 6.48 ± 2.02 mL/min/kg, the “Net tubular secretion (CLSECR)” value [3, 13] was 189.95 ml/min/m² and 189.95 ± 70.90 ml/min/m² and the “Net tubular secretion (CLSECR)” value ([3]; corrected for mean BW 72 kg) was 4.99 mL/min/kg and 4.99 ± 1.86 mL/min/kg. For the same compound, the “Fu, free, non-protein bound, fraction” value (plasma proteins [7]) was 1.0 and the CLR [4] was 9.51 ± 2.44 mL/min/kg.
With `CC(C)NC[C@@H](O)COc1cccc2[nH]ccc12` [R-pindolol] the “Fu, free, non-protein bound, fraction” value (plasma proteins [7]) was 0.19 ± 0.03^3.
In the case of `CC(C)NC[C@H](O)COc1cccc2[nH]ccc12` [S-pindolol], the “Fu, free, non-protein bound, fraction” value (plasma proteins [7]) is reported as 0.62 ± 0.00^3.
For `CC(C)NCC(O)COc1cccc2[nH]ccc12` (centres unmarked) [pindolol], the “Decrease in GFR against baseline, average” value (GFR; IV administration) is given as 4.37%, the “Decrease in GFR against baseline, range” value (GFR; IV administration) is given as 0.96−9.43% and the “Effect on GFR against baseline” value (GFR; oral administration) is given as “no significant effect”. For the same compound, the “Urinary excretion of unchanged pindolol” value [8] was 35%, the Hemodynamical changes [9] was “did not induce any hemodynamical changes” and the fu (plasma proteins [10]) was 0.45. The “Effect on ERPF and GFR” value (ERPF and GFR) was “slight but insignificant decrements in ERPF and GFR”.
For sinistrin, the “GFR (renal clearance of sinistrin)” value [3, 13] is given as 68.78 ± 21.16^2 ml/min/m² and the “GFR (renal clearance of sinistrin)” value ([3]; corrected for mean BW 72 kg) is given as 1.81 ± 0.56^2 ml/min/kg.
